Source: PubChem BioAssay AID248 (DTP/NCI, 2004)
Values joined by “and” are separate entries in the source; they are usually repeats but may differ in a detail not shown here. Identical values can stand only once. Inconclusive results and toxic doses are left out. Rule as the data show it: active = T/C of 150% or more; inactive = T/C below 125%.

Tested on: L1210 leukemia ip in BDF1 mice, survival T/C
Assay: NCI In Vivo Anticancer Drug Screen. Data for tumor model L1210 Leukemia (intraperitoneal) in B6D2F1 (BDF1) mice
Conditions: higher = longer survival
In short: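 Each compound was tested against a transplantable tumor grown in mice. The endpoint was survival, with treated animals benchmarked against vehicle controls as a simple ratio.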

[1] = endpoint: mean survival time, dose: 100.0 mg/kg/injection, schedule: Q04DX003 (ip), vehicle: Klucel (hydroxypropylcellulose) (HPC)
[2] = endpoint: mean survival time, dose: 200.0 mg/kg/injection, schedule: Q04DX003 (ip), vehicle: Klucel (hydroxypropylcellulose) (HPC)
[3] = endpoint: mean survival time, dose: 400.0 mg/kg/injection, schedule: Q04DX003 (ip), vehicle: Klucel (hydroxypropylcellulose) (HPC)
[4] = endpoint: mean survival time, dose: 100.0 mg/kg/injection, schedule: Q04DX002 (ip), vehicle: saline with Tween-80
[5] = endpoint: mean survival time, dose: 200.0 mg/kg/injection, schedule: Q04DX002 (ip), vehicle: saline with Tween-80
[6] = endpoint: mean survival time, dose: 400.0 mg/kg/injection, schedule: Q04DX002 (ip), vehicle: saline with Tween-80

Measured: T/C

CCCCCCCCCCCCCCCCNC(=S)N/N=C(/C=C/c1ccccc1)C(=O)O
inactive: endpoint: mean survival time, dose: 15.0 mg/kg/injection, schedule: Q01DX Z (ip), vehicle: carboxymethylcellulose (CMC) 101 % of control | endpoint: mean survival time, dose: 30.0 mg/kg/injection, schedule: Q01DX Z (ip), vehicle: carboxymethylcellulose (CMC) 108 % of control | endpoint: mean survival time, dose: 30.0 mg/kg/injection, schedule: Q01DX Z (oral), vehicle: carboxymethylcellulose (CMC) 112 % of control | endpoint: mean survival time, dose: 60.0 mg/kg/injection, schedule: Q01DX Z (ip), vehicle: carboxymethylcellulose (CMC) 113 % of control | endpoint: mean survival time, dose: 60.0 mg/kg/injection, schedule: Q01DX Z (oral), vehicle: carboxymethylcellulose (CMC) 111 % of control | endpoint: mean survival time, dose: 120.0 mg/kg/injection, schedule: Q01DX Z (oral), vehicle: carboxymethylcellulose (CMC) 100 % of control and 101 % of control | endpoint: mean survival time, dose: 240.0 mg/kg/injection, schedule: Q01DX Z (oral), vehicle: carboxymethylcellulose (CMC) 108 % of control and 109 % of control | endpoint: mean survival time, dose: 480.0 mg/kg/injection, schedule: Q01DX Z (oral), vehicle: carboxymethylcellulose (CMC) 109 % of control | endpoint: mean survival time, dose: 960.0 mg/kg/injection, schedule: Q01DX Z (oral), vehicle: carboxymethylcellulose (CMC) 113 % of control

Ic1ccc(Oc2ccc(I)cc2)cc1
inactive: [1] 113 % of control | [2] 90 % of control | endpoint: mean survival time, dose: 222.0 mg/kg/injection, schedule: Q01DX Z (ip), vehicle: methylcellulose (MC) 92 % of control | endpoint: mean survival time, dose: 333.0 mg/kg/injection, schedule: Q01DX Z (ip), vehicle: methylcellulose (MC) 92 % of control | [3] 98 % of control | endpoint: mean survival time, dose: 500.0 mg/kg/injection, schedule: Q01DX Z (ip), vehicle: methylcellulose (MC) 100 % of control

CCOC(Nc1ccc([N+](=O)[O-])cc1)C(=O)c1ccccc1 (centres undefined)
inactive: endpoint: mean survival time, dose: 100.0 mg/kg/injection, schedule: Q01DX001 (ip), vehicle: saline 93 % of control | endpoint: mean survival time, dose: 200.0 mg/kg/injection, schedule: Q01DX001 (ip), vehicle: saline 97 % of control | endpoint: mean survival time, dose: 400.0 mg/kg/injection, schedule: Q01DX001 (ip), vehicle: saline 100 % of control

C=CCCCCCCCCC
inactive: [4] 93 % of control | [5] 111 % of control | [6] 104 % of control

CCS(=O)(=O)c1ccc(NC(=O)OC2CCC3(C)C(=CCC4C3CCC3(C)C(C(C)CCCC(C)C)CCC43)C2)cc1 (centres undefined)
inactive: endpoint: mean survival time, dose: 100.0 mg/kg/injection, schedule: Q01DX001 (sc), vehicle: steriod suspending solution 97 % of control | endpoint: mean survival time, dose: 200.0 mg/kg/injection, schedule: Q01DX001 (sc), vehicle: steriod suspending solution 100 % of control | endpoint: mean survival time, dose: 400.0 mg/kg/injection, schedule: Q01DX001 (sc), vehicle: steriod suspending solution 94 % of control

NS(=O)(=O)c1ccccc1
inactive: endpoint: mean survival time, dose: 100.0 mg/kg/injection, schedule: Q04DX002 (ip), vehicle: saline 105 % of control | [1] 101 % of control | endpoint: mean survival time, dose: 200.0 mg/kg/injection, schedule: Q04DX002 (ip), vehicle: saline 105 % of control | [2] 103 % of control | endpoint: mean survival time, dose: 400.0 mg/kg/injection, schedule: Q04DX002 (ip), vehicle: saline 109 % of control | [3] 92 % of control

CO[C@H]1C[C@H](O[C@H]2CC[C@]3(C=O)[C@H]4CC[C@]5(C)[C@@H](C6=CC(=O)OC6)CC[C@]5(O)[C@@H]4CC[C@]3(O)C2)O[C@H](C)[C@H]1O[C@@H]1O[C@H](CO)[C@@H](O)[C@H](O)[C@H]1O
inactive: endpoint: mean survival time, dose: 0.25 mg/kg/injection, schedule: Q01DX015 (ip), vehicle: carboxymethylcellulose (CMC) 88 % of control | endpoint: mean survival time, dose: 0.5 mg/kg/injection, schedule: Q01DX001 (ip), vehicle: saline 100 % of control | endpoint: mean survival time, dose: 0.5 mg/kg/injection, schedule: Q01DX015 (ip), vehicle: carboxymethylcellulose (CMC) 113 % of control | endpoint: mean survival time, dose: 0.5 mg/kg/injection, schedule: Q04DX003 (ip), vehicle: saline 100 % of control | endpoint: mean survival time, dose: 1.0 mg/kg/injection, schedule: Q01DX015 (ip), vehicle: carboxymethylcellulose (CMC) 89 % of control | endpoint: mean survival time, dose: 1.0 mg/kg/injection, schedule: Q04DX003 (ip), vehicle: saline 103 % of control | endpoint: mean survival time, dose: 2.0 mg/kg/injection, schedule: Q01DX015 (ip), vehicle: carboxymethylcellulose (CMC) 97 % of control | endpoint: mean survival time, dose: 4.0 mg/kg/injection, schedule: Q01DX001 (ip), vehicle: saline 98 % of control | endpoint: median survival time, dose: 0.5 mg/kg/injection, schedule: Q01DX005 (ip), vehicle: water 104 % of control | endpoint: median survival time, dose: 1.0 mg/kg/injection, schedule: Q01DX005 (ip), vehicle: water 103 % of control | endpoint: median survival time, dose: 2.0 mg/kg/injection, schedule: Q01DX005 (ip), vehicle: water 106 % of control

O=C1NC(=O)C2(CCN(CC3COc4ccccc4O3)CC2)C(=O)N1 (centres undefined)
inactive: [1] 97 % of control | [2] 103 % of control | [3] 109 % of control

CNC(=O)Oc1ccc(NC(=O)OC)cc1
inactive: endpoint: mean survival time, dose: 100.0 mg/kg/injection, schedule: Q04DX003 (ip), vehicle: saline with Tween-80 93 % of control | endpoint: mean survival time, dose: 200.0 mg/kg/injection, schedule: Q04DX003 (ip), vehicle: saline with Tween-80 87 % of control

CC(C)(CO)N=Cc1cc(Cl)cc(Cl)c1O
inactive: endpoint: mean survival time, dose: 75.0 mg/kg/injection, schedule: Q01DX001 (ip), vehicle: saline 102 % of control | endpoint: mean survival time, dose: 150.0 mg/kg/injection, schedule: Q01DX001 (ip), vehicle: saline 101 % of control | endpoint: mean survival time, dose: 300.0 mg/kg/injection, schedule: Q01DX001 (ip), vehicle: saline 109 % of control

CN(C)C(=S)SCC(=O)O
inactive: [4] 100 % of control | [5] 96 % of control | [6] 100 % of control

NC(=O)c1ccccc1NC(=O)CCCOc1ccccc1
inactive: endpoint: mean survival time, dose: 100.0 mg/kg/injection, schedule: Q01DX001 (ip), vehicle: Klucel (hydroxypropylcellulose) (HPC) 100 % of control | [1] 94 % of control | endpoint: mean survival time, dose: 200.0 mg/kg/injection, schedule: Q01DX001 (ip), vehicle: Klucel (hydroxypropylcellulose) (HPC) 93 % of control | [2] 97 % of control | endpoint: mean survival time, dose: 400.0 mg/kg/injection, schedule: Q01DX001 (ip), vehicle: Klucel (hydroxypropylcellulose) (HPC) 96 % of control

CC(C)n1c2c([n+](C)c1/C=C/c1ccccc1)C(=O)c1ccccc1C2=O
inactive: endpoint: mean survival time, dose: 1.0 mg/kg/injection, schedule: Q01DX009 (ip), vehicle: Klucel (hydroxypropylcellulose) (HPC) 106 % of control | endpoint: mean survival time, dose: 1.0 mg/kg/injection, schedule: Q04DX003 (ip), vehicle: Klucel (hydroxypropylcellulose) (HPC) 107 % of control | endpoint: mean survival time, dose: 2.0 mg/kg/injection, schedule: Q01DX009 (ip), vehicle: Klucel (hydroxypropylcellulose) (HPC) 101 % of control | endpoint: mean survival time, dose: 2.0 mg/kg/injection, schedule: Q04DX003 (ip), vehicle: Klucel (hydroxypropylcellulose) (HPC) 96 % of control | endpoint: mean survival time, dose: 4.0 mg/kg/injection, schedule: Q04DX003 (ip), vehicle: Klucel (hydroxypropylcellulose) (HPC) 86 % of control | endpoint: mean survival time, dose: 5.0 mg/kg/injection, schedule: Q01DX001 (ip), vehicle: saline 103 % of control

c1ccc([C@H]2N[C@H]2c2ccccc2)cc1
inactive: [1] 96 % of control | [2] 95 % of control | [3] 98 % of control

O=C(NCCCCCCCCCCNC(=O)Nc1cccc(C2=NCC(O)CN2)c1)Nc1cccc(C2=NCC(O)CN2)c1 (centres undefined)
inactive: endpoint: mean survival time, dose: 5.25 mg/kg/injection, schedule: Q01DX Z (ip), vehicle: carboxymethylcellulose (CMC) 106 % of control | endpoint: mean survival time, dose: 10.5 mg/kg/injection, schedule: Q01DX Z (ip), vehicle: carboxymethylcellulose (CMC) 117 % of control | endpoint: mean survival time, dose: 21.0 mg/kg/injection, schedule: Q01DX Z (ip), vehicle: carboxymethylcellulose (CMC) 103 % of control | endpoint: mean survival time, dose: 42.0 mg/kg/injection, schedule: Q01DX Z (ip), vehicle: carboxymethylcellulose (CMC) 97 % of control

NNc1ccc2ccccc2n1
inactive: endpoint: mean survival time, dose: 5.0 mg/kg/injection, schedule: Q01DX009 (ip), vehicle: saline 95 % of control | endpoint: mean survival time, dose: 5.0 mg/kg/injection, schedule: Q04DX003 (ip), vehicle: saline with Tween-80 113 % of control | endpoint: mean survival time, dose: 10.0 mg/kg/injection, schedule: Q01DX009 (ip), vehicle: saline 97 % of control | endpoint: mean survival time, dose: 10.0 mg/kg/injection, schedule: Q04DX003 (ip), vehicle: saline with Tween-80 101 % of control | endpoint: mean survival time, dose: 20.0 mg/kg/injection, schedule: Q01DX009 (ip), vehicle: saline 97 % of control | endpoint: mean survival time, dose: 20.0 mg/kg/injection, schedule: Q04DX003 (ip), vehicle: saline with Tween-80 101 % of control

CCCCCCCCCCCCCCCCCC1=Nc2ccccc2NC(=O)C1
inactive: endpoint: mean survival time, dose: 100.0 mg/kg/injection, schedule: Q01DX001 (ip), vehicle: carboxymethylcellulose (CMC) 98 % of control | endpoint: mean survival time, dose: 200.0 mg/kg/injection, schedule: Q01DX001 (ip), vehicle: carboxymethylcellulose (CMC) 98 % of control | endpoint: mean survival time, dose: 400.0 mg/kg/injection, schedule: Q01DX001 (ip), vehicle: carboxymethylcellulose (CMC) 93 % of control
